Like-named read-outs stand apart in the source and are kept apart here.
What was measured:
[1] = target: T1, ABCB1 (Homo sapiens, UniProt P08183); assay: MDCKII monolayer transport assay, MDCKII-ABCB1; type: in vitro ADME; settings: dog
T1 construct: expressed in transfected cells; host or cells: MDCKII-ABCB1 (from Dr. Alfred Schinkel, The Netherlands Cancer Institute)
Method: Transport assays were performed on microporous polycarbonate membrane filters (3 µm pore size, 24 mm diameter, Transwell 3414; Costar, Corning, NY, USA) using MDCKII parental as well as ABCB1-, ABCG2-, and ABCC1-overexpressing MDCKII cells. The cells were seeded at a density of 1.5 × 10^6 cells per insert and cultured to full confluence for 7 days with media exchanges on the second and fourth days. Before the start of the transport experiments, inserts were washed with 1 × PBS on both the apical and basal sides. The cells were then preincubated in Opti-MEM with or without model inhibitors (1 µM LY335979, 1 µM Ko143, or 25 µM MK-571). […] Ensartinib levels in samples were measured by UHPLC-MS/MS (see below). […]
Samples from the monolayer transport assays (10 µL) were mixed with 100 µL of acetonitrile and 100 µL of methanol, vortexed for 15 min, and centrifuged at 14,500 rpm for 3 min. […] The MS source parameters were set to the following: drying gas, 320 °C, flow rate 10 l/min; sheath gas, 400 °C at 12 l/min; nebulizer pressure 25 psi; capillary voltage 4000 V; nozzle voltage 0 V. Transitions of [M+H]^+ ions were detected using a dwell time of 150 ms, a cell acceleration of 4 V, and fragmentor voltages of 137 V for 547→357, 257 and 120 transitions (corresponding to collision energies of 16, 32, and 56 V).

[2] = set-up: method as in doi:10.1200/JCO.2018.36.15_suppl.e21122; settings: in vivo pharmacokinetic studies in humans (patients); cited from earlier work
[3] = target: T2, ABCC1 (Homo sapiens, UniProt P33527); assay: daunorubicin accumulation assay (flow cytometry) in MDCKII-ABCC1 cells; type: cell-based; settings: 2 µM daunorubicin, 1 h, read-out: IC50, inhibition of daunorubicin efflux by ABCC1
T2 construct: expressed in transfected cells; host or cells: MDCKII-ABCC1 (from Dr. Alfred Schinkel, The Netherlands Cancer Institute)
T2 sequence (P33527 whole entry): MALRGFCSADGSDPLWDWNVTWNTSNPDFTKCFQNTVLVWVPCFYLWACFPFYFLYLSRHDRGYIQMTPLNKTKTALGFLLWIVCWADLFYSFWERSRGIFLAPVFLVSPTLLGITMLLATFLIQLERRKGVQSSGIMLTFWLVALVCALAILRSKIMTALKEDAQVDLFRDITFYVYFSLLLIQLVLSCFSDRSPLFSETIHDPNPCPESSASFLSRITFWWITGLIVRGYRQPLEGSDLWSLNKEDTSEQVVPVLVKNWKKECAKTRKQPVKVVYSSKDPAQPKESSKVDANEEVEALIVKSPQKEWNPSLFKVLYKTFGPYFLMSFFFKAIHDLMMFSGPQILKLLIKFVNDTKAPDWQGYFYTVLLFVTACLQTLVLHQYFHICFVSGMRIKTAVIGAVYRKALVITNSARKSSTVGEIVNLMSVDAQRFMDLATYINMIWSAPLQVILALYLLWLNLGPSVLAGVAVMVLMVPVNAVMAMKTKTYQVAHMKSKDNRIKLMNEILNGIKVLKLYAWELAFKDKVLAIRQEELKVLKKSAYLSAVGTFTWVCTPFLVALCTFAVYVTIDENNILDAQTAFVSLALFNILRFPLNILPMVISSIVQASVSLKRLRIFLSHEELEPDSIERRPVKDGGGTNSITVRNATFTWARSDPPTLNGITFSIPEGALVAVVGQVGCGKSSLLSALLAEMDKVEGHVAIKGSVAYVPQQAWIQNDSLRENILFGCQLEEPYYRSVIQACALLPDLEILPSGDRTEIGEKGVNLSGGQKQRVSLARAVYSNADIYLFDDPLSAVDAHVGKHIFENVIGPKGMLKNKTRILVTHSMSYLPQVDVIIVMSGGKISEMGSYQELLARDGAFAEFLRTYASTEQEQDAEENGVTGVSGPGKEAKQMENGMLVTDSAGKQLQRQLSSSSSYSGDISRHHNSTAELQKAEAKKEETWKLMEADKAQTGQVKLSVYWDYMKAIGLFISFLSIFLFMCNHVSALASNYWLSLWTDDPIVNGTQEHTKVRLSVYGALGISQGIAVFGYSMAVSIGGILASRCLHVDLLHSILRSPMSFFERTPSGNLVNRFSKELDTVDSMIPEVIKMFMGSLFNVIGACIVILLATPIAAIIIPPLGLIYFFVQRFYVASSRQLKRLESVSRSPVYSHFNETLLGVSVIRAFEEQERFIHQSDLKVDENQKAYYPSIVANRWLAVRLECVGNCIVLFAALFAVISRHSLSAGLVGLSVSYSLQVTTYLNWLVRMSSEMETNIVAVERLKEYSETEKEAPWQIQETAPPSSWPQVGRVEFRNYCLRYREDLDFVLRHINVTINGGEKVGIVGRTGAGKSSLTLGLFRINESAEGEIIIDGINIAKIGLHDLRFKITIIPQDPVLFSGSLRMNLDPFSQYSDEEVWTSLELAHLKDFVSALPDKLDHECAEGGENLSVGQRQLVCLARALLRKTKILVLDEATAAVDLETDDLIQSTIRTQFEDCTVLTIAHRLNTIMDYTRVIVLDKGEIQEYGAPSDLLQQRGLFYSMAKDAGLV
Method: (§1) The flow-cytometric inhibitory assay with daunorubicin and mitoxantrone was performed with minor modifications as described previously. MDCKII-par, MDCKII-ABCB1, MDCKII-ABCG2, and MDCKII-ABCC1 cell lines were seeded at densities of 22.0 × 10^4, 15.0 × 10^4, 25.0 × 10^4, and 22.0 × 10^4 cells/well, respectively, on a 12-well plate and then incubated for 24 h to reach approximately 70–80% confluence. Further steps including cell washing, the preparation of drug/model inhibitor dilutions, and their addition to cells were performed as described above. After the 10 min pre-incubation period, 2 µM daunorubicin (a substrate of ABCB1/ABCC1) or 1 µM mitoxantrone (ABCG2 substrate) were promptly added to all wells other than those containing background samples, then the plate was incubated for 1 h under standard conditions. The plates were subsequently placed on ice, the cells were washed twice with ice-cold 1× PBS, and 10× trypsin without phenol red was added. After complete trypsinization, the cells were vigorously resuspended in ice-cold 1× PBS containing 2% FBS. Samples were then transferred into test-tubes and kept on ice until their fluorescence could be measured using a flow cytometer (BD FACSCanto II, Allschwil, Switzerland). The excitation/emission wavelengths for daunorubicin and mitoxantrone were 490/565 and 640/670 nm, respectively.

[4] = system: MDCKII-parent cells; assay: MTT proliferation / drug combination assay, MDCKII-parent; type: cell-based, canine
Method: (§2) MTT proliferation assay was performed as described previously.

[5] = target: T1, ABCB1; assay: daunorubicin accumulation assay (flow cytometry) in MDCKII-ABCB1 cells; type: cell-based; settings: 2 µM daunorubicin, 1 h, read-out: IC50, inhibition of ABCB1 (daunorubicin accumulation)
Method: as §1

[6] = target: T2, ABCC1; assay: calcein AM accumulation assay in MDCKII-ABCC1 cells; type: cell-based; settings: read-out: IC50, inhibition of ABCC1-mediated calcein AM efflux
Method: Cellular accumulation assay with hoechst 33342 and calcein AM was performed as described previously. Briefly, MDCKII-par, MDCKII-ABCB1, MDCKII-ABCG2, and MDCKII-ABCC1 cells were seeded at densities of 5.0 × 10^4, 5.0 × 10^4, 5.5 × 10^4, and 6.0 × 10^4 cells/well, respectively, on a transparent 96-well plate and grown to full confluence for 24 h under standard conditions. The cells were then washed twice with 1 × PBS, after which was added either a dilution of ensartinib in Opti-MEM (1, 5, 10, 25, or 50 µM) or a specific inhibitor to act as a positive control (1 µM LY335979, 1 µM Ko143, or 25 µM MK-571 for ABCB1, ABCG2, or ABCC1, respectively). Cells were pre-incubated for 10 min, then 8 µM hoechst 33342 (a model substrate for ABCB1 and ABCG2) or 2 µM calcein AM (ABCC1 substrate) diluted in Opti-MEM was quickly added to all wells other than those containing blank samples. The intracellular levels of the substrates were then determined at 1 min intervals for 30 min using a microplate reader (Infinite M200 Pro, Tecan, Männedorf, Switzerland). Fluorescence was monitored in bottom mode using excitation/emission wavelengths of 350/465 and 485/535 nm for hoechst 33342 and calcein AM, respectively.

[7] = system: A431-parent cells; assay: MTT proliferation assay, A431-parent; type: cell-based; settings: Homo sapiens, 48 h, read-out: IC50, sensitivity to ensartinib
Method: as §2

T1 sequence (P08183 whole entry): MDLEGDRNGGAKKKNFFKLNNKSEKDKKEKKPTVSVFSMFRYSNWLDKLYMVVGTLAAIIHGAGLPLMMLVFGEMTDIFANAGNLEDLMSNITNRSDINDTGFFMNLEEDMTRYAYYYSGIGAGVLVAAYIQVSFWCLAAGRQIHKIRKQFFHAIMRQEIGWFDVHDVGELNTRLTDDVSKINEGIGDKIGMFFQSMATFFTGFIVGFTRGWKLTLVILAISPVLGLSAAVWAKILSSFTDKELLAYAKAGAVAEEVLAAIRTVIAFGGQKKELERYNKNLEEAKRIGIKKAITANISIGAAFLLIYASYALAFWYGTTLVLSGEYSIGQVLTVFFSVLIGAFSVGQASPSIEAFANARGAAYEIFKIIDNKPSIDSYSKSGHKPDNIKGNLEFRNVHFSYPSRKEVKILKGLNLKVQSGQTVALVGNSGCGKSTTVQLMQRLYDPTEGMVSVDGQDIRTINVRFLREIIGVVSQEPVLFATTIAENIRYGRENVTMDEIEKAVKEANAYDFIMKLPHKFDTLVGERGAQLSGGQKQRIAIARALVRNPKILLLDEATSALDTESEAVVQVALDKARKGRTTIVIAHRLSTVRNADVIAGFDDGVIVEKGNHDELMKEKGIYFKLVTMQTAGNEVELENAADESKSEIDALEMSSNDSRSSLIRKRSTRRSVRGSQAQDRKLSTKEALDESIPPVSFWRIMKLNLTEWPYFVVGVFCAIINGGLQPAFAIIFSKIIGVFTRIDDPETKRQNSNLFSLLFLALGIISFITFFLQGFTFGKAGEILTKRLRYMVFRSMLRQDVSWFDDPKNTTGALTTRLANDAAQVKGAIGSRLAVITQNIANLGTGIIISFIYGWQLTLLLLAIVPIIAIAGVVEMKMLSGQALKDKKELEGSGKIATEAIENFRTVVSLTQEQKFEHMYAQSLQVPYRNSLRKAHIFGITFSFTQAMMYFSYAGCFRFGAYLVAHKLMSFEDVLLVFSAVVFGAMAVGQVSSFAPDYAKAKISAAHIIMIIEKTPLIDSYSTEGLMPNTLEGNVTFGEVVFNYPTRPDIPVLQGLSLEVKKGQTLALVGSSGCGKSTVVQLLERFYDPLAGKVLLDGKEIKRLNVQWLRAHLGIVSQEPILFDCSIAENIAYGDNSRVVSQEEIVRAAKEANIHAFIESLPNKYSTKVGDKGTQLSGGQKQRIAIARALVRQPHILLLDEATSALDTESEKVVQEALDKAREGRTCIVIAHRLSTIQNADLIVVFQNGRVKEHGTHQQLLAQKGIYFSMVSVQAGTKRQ

C[C@@H]1CN(C(=O)c2ccc(NC(=O)c3cc(O[C@H](C)c4c(Cl)ccc(F)c4Cl)c(N)nn3)cc2)C[C@H](C)N1 [ensartinib, Ensartinib]
efflux ratio at 4 h, 1 µM ([1]; MDCK-MDR1, 1 µM ensartinib, read-out: transport ratio (r), BA/AB): 15.6
efflux ratio at 4 h, 1 µM ([1]; MDCK-MDR1, with LY335979, 1 µM ensartinib + 1 µM LY335979, read-out: transport ratio (r), BA/AB, with ABCB1 inhibitor): 1.05
Cmax [2]: 1000 nM
IC50 [3]: > 50 µM
IC50 ([4]; Canis lupus familiaris, MDCKII-parent, 48 h, MTT, read-out: IC50, sensitivity to ensartinib): 21.8 µM
combination effect (Chou-Talalay combination index) ([4]; MDCKII parental, 10 µM ensartinib with daunorubicin or mitoxantrone, whole FA range): antagonistic or additive
IC50 [5]: 4.75 µM
IC50 [6]: > 50 µM
IC50 [7]: 2.69 µM

Reference: article PMC7226045, “Ensartinib (X-396) Effectively Modulates Pharmacokinetic Resistance Mediated by ABCB1 and ABCG2 Drug Efflux Transporters and CYP3A4 Biotransformation Enzyme” (Cancers, 2020)
